For assay [1], the system named is Tte preQ1 riboswitch (not labelled) (RNA, riboswitch) CUGGGUCGCAGUAACCCCAGUUAACAAAACAAG
In words: ITC. To be noted: 100 mM NaCl, 6 mM MgCl2, 50 mM HEPES pH 7.0, 25 °C; for binding: loose binding in SPR; for KD: 0.2% DMSO.

Assay [2] concerns 5'-Cy5-Ba SAM-VI riboswitch (RNA, riboswitch) GGCAUUGUGCCUCGCAUUGCACUCCGCGGGGCGAUAAGUCCUGAAAAGGGAUGUC
In words: MST. To be noted: 100 mM KCl, 25 mM MgCl2, 50 mM Tris-HCl pH 7.5, 2% DMSO.

The subject of assay [3] is 5'-Biotin-Tte preQ1 riboswitch (RNA, riboswitch) CUGGGUCGCAGUAACCCCAGUUAACAAAACAAG
In words: SPR, 1:1 kinetic fit. The following applies: 150 mM NaCl, 6 mM MgCl2, 50 mM HEPES pH 7.0, 25 °C. A general note: Surface plasmon resonance follows binding to a sensor surface in real time, without labels.

Assay [4] has as its system 5'-Cy5-Tte preQ1 riboswitch (RNA, riboswitch) CUGGGUCGCAGUAACCCCAGUUAACAAAACAAG
The experiment in a line: MST. The following applies: 100 mM KCl, 25 mM MgCl2, 50 mM Tris-HCl pH 7.5, 2% DMSO.

The subject of assay [5] is 5'-Biotin-Ba SAM-VI riboswitch (RNA, riboswitch) GGCAUUGUGCCUCGCAUUGCACUCCGCGGGGCGAUAAGUCCUGAAAAGGGAUGUC
The experiment in a line: SPR, 1:1 kinetic fit. To be noted: 150 mM NaCl, 6 mM MgCl2; 50 mM HEPES pH 7.0, 25 °C.

Assay [6] deals with Ba SAM-VI riboswitch (label-free, IVT) (RNA, riboswitch) GGCAUUGUGCCUCGCAUUGCACUCCGCGGGGCGAUAAGUCCUGAAAAGGGAUGUC
The experiment in a line: ITC. The following applies: 50 mM KCl, 10 mM MgCl2; 40 mM HEPES pH 7.0, 25 °C, 0.2% DMSO.

Assay [7] relates to 5'-Biotin-Tte preQ1 riboswitch (RNA, riboswitch) CUGGGUCGCAGUAACCCCAGUUAACAAAACAAG
The experiment in a line: SPR. To be noted: 150 mM NaCl, 6 mM MgCl2; 50 mM HEPES pH 7.0, 25 °C; loose unspecific, no saturation to 50 µM, KD not determinable.

For assay [8] the test system is unchanged. The experiment in a line: SPR, Interaction Map analysis. To be noted: 150 mM NaCl, 6 mM MgCl2; 50 mM HEPES pH 7.0, 25 °C, 2% DMSO.

This note sets out measurements from article PMC12035807 (2025).

The KD is the constant that tells how readily two partners part at equilibrium. A low value points to a tighter complex.

For the compound `NCCCCNCCCNCCOc1ccc2[nH]c3ccccc3c2c1`, the binding result was “no” in assay [1] (RNA 15 µM, ligand 150 µM) and “no” in assay [2] (up to 1 mM).

As for `NCc1c[nH]c2nc(N)[nH]c(=O)c12`, the KD is on record as 19.1 nM in assay [3] (one representative sensorgram, replicates 18.5-47.4, mean not in material) and 23.1 ± 7.4 nM in assay [1]. The binding entry in assay [4] (20 nM RNA) was “yes”; in assay [2] (up to 1 mM) it was “no”.

Regarding `NCCOc1ccc2[nH]c3ccccc3c2c1`, the binding entry in assay [1] (RNA 15 µM, ligand 150 µM) is “no”; in assay [2] (up to 1 mM) it was “no”.

Take `NCCCNC[C@H]1O[C@@H](n2cnc3c(N)ncnc32)[C@H](O)[C@@H]1O`: the KD in assay [5] amounted to 4170 ± 1560 nM; in assay [6], 0.00173 ± 0.00051 mM. The binding result in assay [4] (up to 1 mM) is “no”; in assay [7], “weak”; in assay [2] (20 nM RNA), “yes”.

For the compound `C[S+](CC[C@H](N)C(=O)O)C[C@H]1O[C@@H](n2cnc3c(N)ncnc32)[C@H](O)[C@@H]1O` (some centres unmarked), the figures for the KD in assay [5], in assay [6] and in assay [2] (20 nM RNA) were 3720 ± 410 nM, 0.000671 ± 5.9e-05 mM and 0.718 ± 0.399 × 10^-6 M, respectively. Further, the binding entry in assay [4] (up to 1 mM) is recorded as “no”.

For `NCCCCNCCCNCCOc1ccc2oc3ccccc3c2c1`, the binding entry is recorded as “no” in assay [1] (RNA 15 µM, ligand 150 µM) and “no” in assay [2] (up to 1 mM).

Turning to `N#Cc1c[nH]c2nc(N)[nH]c(=O)c12`, the KD in assay [3] (2% DMSO) came out at 74.0 ± 29.4 nM; in assay [1], 85.4 ± 3.3 nM; in assay [8] it was 134 nM. Besides, the binding entry is on record as “yes” in assay [4] (20 nM RNA) and “no” in assay [2] (up to 1 mM).

For the compound `Nc1ncnc2c1ncn2[C@@H]1O[C@H](CSCC[C@H](N)C(=O)O)[C@@H](O)[C@H]1O`, the figures for the KD in assay [5], in assay [6] and in assay [2] (20 nM RNA) were 150000 ± 39000 nM, 0.014 ± 0.0042 mM and 34.4 ± 12.0 × 10^-6 M, respectively. For the same compound, the binding entry in assay [4] (up to 1 mM) is on record as “no”.

Regarding `NCCOc1ccc2oc3ccccc3c2c1`, the binding entry in assay [1] (RNA 30 µM, ligand 300 µM) was “no”; in assay [2] (up to 1 mM) it was “no”.

Consider `NCCCNCCOc1ccc2[nH]c3ccccc3c2c1`, for which the binding entry was “no” in assay [1] (RNA 30 µM, ligand 300 µM) and “no” in assay [2] (up to 1 mM).

Take `Nc1ncnc2c1ncn2[C@@H]1O[C@H](CNCC[C@H](N)C(=O)O)[C@@H](O)[C@H]1O`: the KD came to 12300 ± 1300 nM in assay [5], 0.00331 ± 0.00021 mM in assay [6] and 33.3 µM in assay [2] (20 nM RNA). For the same compound, the binding result in assay [4] (up to 1 mM) was “no”.

`NCCCNCCOc1ccc2oc3ccccc3c2c1`: the binding entry in assay [1] (RNA 30 µM, ligand 300 µM) is recorded as “no”; in assay [2] (up to 1 mM), “no”.
